Reference: patent US20240409566A1, “DELIVERY OF THERAPEUTIC ALKALOID COMPOUNDS” (priority 2022, published 2024)

Columns and labels:
[1] = Plasma stability assay, rat plasma; assay type: in vitro ADME
Protocol: (§1) Compound stability in rat and human plasma was measured by incubating compound with rat or human plasma at 37° C. in a microwell plate for sequential time points, monitoring pro-drug disappearance and metabolite appearance (mesembranol or 6-epi-mesembranol). A 2 mM stock solution of test compounds were prepared by dissolving appropriate amount of compounds in DMSO. The 2 mM stock was further diluted 200-folds in rat or human plasma to attain a final concentration of 10 μM respectively (0.5% DMSO). 50 μL aliquots of positive controls and test compounds spiked into rat or human plasma (n=2) were added to a pre-warmed plate (37° C.) and shaken at 50 rpm. At each respective time point, the reaction was stopped by adding 500 μL of acetonitrile containing internal standards (100 nM aprozolam, 200 nM caffeine, 100 nM tolbutamide). All samples were vortexed for 10 minutes, followed by centrifugation at 3,220 g for 30 minutes to precipitate proteins. 100 μL of the supernatant is transferred to a new plate. The supernatant will be diluted with ultrapure water according to the LC-MS signal response and peak shape. The concentrations of test compounds and positive control were quantified in the test samples using LC-MS/MS. Results reported as % of prodrug compound remaining at time point, and % of metabolite (mesembranol or 6-epi-mesembranol,) accumulated at time point.

[2] = Plasma stability assay, human plasma; assay type: in vitro ADME
Protocol: as §1

[3] = rat plasma, 37° C., 10 μM, 0 min, % prodrug remaining
[4] = rat plasma, 37° C., 10 μM, 10 min, % prodrug remaining
[5] = rat plasma, 37° C., 10 μM, 30 min, % prodrug remaining
[6] = rat plasma, 37° C., 10 μM, 60 min, % prodrug remaining
[7] = rat plasma, 37° C., 10 μM, 120 min, % prodrug remaining
[8] = rat plasma, 37° C., 10 μM, 240 min, % prodrug remaining
[9] = human plasma, 37° C., 10 μM, 0 min, % prodrug remaining
[10] = human plasma, 37° C., 10 μM, 10 min, % prodrug remaining
[11] = human plasma, 37° C., 10 μM, 30 min, % prodrug remaining
[12] = human plasma, 37° C., 10 μM, 60 min, % prodrug remaining
[13] = human plasma, 37° C., 10 μM, 120 min, % prodrug remaining
[14] = human plasma, 37° C., 10 μM, 240 min, % prodrug remaining

| Compound | Prodrug (%) ([1]; rat, 0 min, 10 µM) | Prodrug (%) ([1]; rat, 10 min, 10 µM) | Prodrug (%) ([1]; rat, 30 min, 10 µM) | Prodrug (%) ([1]; rat, 60 min, 10 µM) | Prodrug (%) ([1]; rat, 120 min, 10 µM) | Prodrug (%) ([1]; rat, 240 min, 10 µM) | Prodrug (%) ([2]; human, 0 min, 10 µM) | Prodrug (%) ([2]; human, 10 min, 10 µM) | Prodrug (%) ([2]; human, 30 min, 10 µM) | Prodrug (%) ([2]; human, 60 min, 10 µM) | Prodrug (%) ([2]; human, 120 min, 10 µM) | Prodrug (%) ([2]; human, 240 min, 10 µM) | also measured |
| --- | --- | --- | --- | --- | --- | --- | --- | --- | --- | --- | --- | --- | --- |
| COc1ccc([C@@]23CC[C@H](OC(=O)c4ccccc4)C[C@@H]2N(C)CC3)cc1OC [Compound 104, (3aS,6S,7aS)-3a-(3,4-dimethoxyphenyl)-1-methyloctahydro-1H-indol-6-yl benzoate] | – | – | – | – | – | – | – | – | – | – | – | – | Prodrug (%) [1, 3]: 100.0%; Prodrug (%) [1, 4]: 62.0%; Prodrug (%) [1, 5]: 27.5%; Prodrug (%) [1, 6]: 7.5%; Prodrug (%) [1, 7]: 1.4%; Prodrug (%) [1, 8]: 0.6%; Prodrug (%) [2, 9]: 100.00%; Prodrug (%) [2, 10]: >99.0%; Prodrug (%) [2, 11]: 97.34%; Prodrug (%) [2, 12]: 97.40%; Prodrug (%) [2, 13]: 95.15%; Prodrug (%) [2, 14]: 90.28% |
| CCCCC(=O)O[C@H]1CC[C@@]2(c3ccc(OC)c(OC)c3)CCN(C)[C@H]2C1 [Compound 105, (3aS,6S,7aS)-3a-(3,4-dimethoxyphenyl)-1-methyloctahydro-1H-indol-6-yl pentanoate] | 100.0% | 10.8% | 0.5% | 0.1% | 0.0% | 0.0% | 100.00% | 96.40% | 89.85% | 81.61% | 72.68% | 50.16% | – |
| CCCC(=O)O[C@H]1CC[C@@]2(c3ccc(OC)c(OC)c3)CCN(C)[C@H]2C1 [Compound 106, (3aS,6S,7aS)-3a-(3,4-dimethoxyphenyl)-1-methyloctahydro-1H-indol-6-yl butyrate] | 100.0% | 39.9% | 2.75% | 0.7% | 0.2% | 0.1% | 100.00% | 93.04% | 87.33% | 79.39% | 67.04% | 50.22% | – |
| COc1ccc([C@@]23CC[C@@H](OC(=O)N(C)C)C[C@@H]2N(C)CC3)cc1OC [Compound 201, (3aS,6R,7aS)-3a-(3,4-dimethoxyphenyl)-1-methyloctahydro-1H-indol-6-yl dimethylcarbamate] | – | – | – | – | – | – | – | – | – | – | – | – | Prodrug (%) [1, 3]: 100.0%; Prodrug (%) [1, 4]: >99.0%; Prodrug (%) [1, 5]: >99.0%; Prodrug (%) [1, 6]: >99.0%; Prodrug (%) [1, 7]: >99.0%; Prodrug (%) [1, 8]: 97.6%; Prodrug (%) [2, 9]: 100.0%; Prodrug (%) [2, 10]: 96.3%; Prodrug (%) [2, 11]: 97.0%; Prodrug (%) [2, 12]: 94.8%; Prodrug (%) [2, 13]: 97.7%; Prodrug (%) [2, 14]: >99.0% |
| COc1ccc([C@@]23CC[C@@H](OC(=O)C(C)(C)C)C[C@@H]2N(C)CC3)cc1OC [Compound 202, (3aS,6R,7aS)-3a-(3,4-dimethoxyphenyl)-1-methyloctahydro-1H-indol-6-yl pivalate] | 100.0% | 80.6% | 38.9% | 9.6% | 0.6% | 0.0% | 100.0% | >99.0% | >99.0% | 96.3% | 94.7% | 88.1% | – |
| COc1ccc([C@@]23CC[C@@H](OC(=O)C(C)C)C[C@@H]2N(C)CC3)cc1OC [Compound 203, (3aS,6R,7aS)-3a-(3,4-dimethoxyphenyl)-1-methyloctahydro-1H-indol-6-yl isobutyrate] | 100.0% | 0.1% | 0.1% | 0.0% | 0.0% | 0.0% | 100.0% | 0.1% | 0.1% | 0.1% | 0.1% | 0.1% | – |
| COc1ccc([C@@]23CC[C@@H](OC(=O)c4ccccc4)C[C@@H]2N(C)CC3)cc1OC [Compound 204, (3aS,6R,7aS)-3a-(3,4-dimethoxyphenyl)-1-methyloctahydro-1H-indol-6-yl benzoate] | – | – | – | – | – | – | – | – | – | – | – | – | Prodrug (%) [1, 3]: 100.0%; Prodrug (%) [1, 4]: 38.7%; Prodrug (%) [1, 5]: 5.9%; Prodrug (%) [1, 6]: 0.6%; Prodrug (%) [1, 7]: 0.1%; Prodrug (%) [1, 8]: 0.0%; Prodrug (%) [2, 9]: 100.00%; Prodrug (%) [2, 10]: 97.40%; Prodrug (%) [2, 11]: 94.26%; Prodrug (%) [2, 12]: 92.22%; Prodrug (%) [2, 13]: 93.59%; Prodrug (%) [2, 14]: 91.87% |
| COc1ccc([C@@]23CC[C@@H](OCOC(=O)C(C)(C)C)C[C@@H]2N(C)CC3)cc1OC [Compound 207, (((3aS,6R,7aS)-3a-(3,4-dimethoxyphenyl)-1-methyloctahydro-1H-indol-6-yl)oxy)methyl pivalate] | 100.0% | 26.5% | 0.5% | 0.0% | 0.0% | 0.0% | 100.0% | 42.0% | 6.9% | 1.6% | 0.7% | 0.1% | – |
| COc1ccc([C@@]23CC[C@@H](OCOC(=O)C(C)C)C[C@@H]2N(C)CC3)cc1OC [Compound 208, (((3aS,6R,7aS)-3a-(3,4-dimethoxyphenyl)-1-methyloctahydro-1H-indol-6-yl)oxy)methyl isobutyrate] | 100.0% | 0.0% | 0.0% | 0.0% | 0.0% | 0.0% | 100.0% | 0.1% | 0.2% | 0.2% | 0.0% | 0.0% | – |
| CCOC(=O)O[C@@H]1CC[C@@]2(c3ccc(OC)c(OC)c3)CCN(C)[C@H]2C1 [Compound 209, (3aS,6R,7aS)-3a-(3,4-dimethoxyphenyl)-1-methyloctahydro-1H-indol-6-yl ethyl carbonate] | 100.0% | 11.5% | 0.0% | 0.0% | 0.0% | 0.0% | 100.0% | 96.0% | 91.8% | 87.6% | 84.1% | 72.5% | – |
| CCCC(=O)OCO[C@@H]1CC[C@@]2(c3ccc(OC)c(OC)c3)CCN(C)[C@H]2C1 [Compound 210, (((3aS,6R,7aS)-3a-(3,4-dimethoxyphenyl)-1-methyloctahydro-1H-indol-6-yl)oxy)methyl butyrate] | 100.0% | 0.0% | 0.0% | 0.0% | 0.1% | 0.1% | 100.0% | 0.5% | 1.0% | 0.6% | 0.1% | 0.1% | – |
